Article PMC9851200, “Multiparameter phenotypic screening for endogenous TFEB and TFE3 translocation identifies novel chemical series modulating lysosome function” (Autophagy, 2022)
Where two headings read alike, the source gives them in different places.

Assays:
Test in all cases: biochemical
Assay type in all cases: binding
[1] = biological target: T1, cellular kinases of SH-SY5Y cells (Homo sapiens, UniProt O15021); settings: 2µM; SH-SY5Y cells; Labeling Site Lys2; DLKPDNLLVTSMGHIK; read-out: KiNativ in-cell binding, % Inhibition, MAST4
T1 construct: endogenous in cells; host or cells: SH-SY5Y
Excerpt: (§1) As KINOMEscan is an in vitro assay, and as different cell types have variable kinase expression profiles we sought to determine the kinase binding profile in our SH-SY5Y TFEB-relocalization cell model. […] Bound kinases were pulled down and analyzed by mass spectrometry to determine the in situ kinase binding profile for each compound.

[2] = biological target: cellular kinases of SH-SY5Y cells (Homo sapiens, UniProt O43318); settings: 2µM; SH-SY5Y cells; Labeling Site Lys2; DLKPPNLLLVAGGTVLK; read-out: KiNativ in-cell binding, % Inhibition, MAP3K7
Excerpt: as §1

[3] = biological target: T2, cellular kinases of SH-SY5Y cells (Homo sapiens, UniProt P16591); settings: 2µM, SH-SY5Y cells
T2 construct: endogenous in cells; host or cells: SH-SY5Y
Excerpt: as §1

[4] = biological target: cellular kinases of SH-SY5Y cells (Homo sapiens, UniProt P19784); settings: 2µM; SH-SY5Y cells; labeling site Lys2; peptide DVKPHNVMIDHQQK
Excerpt: as §1

[5] = biological target: cellular kinases of SH-SY5Y cells (Homo sapiens, UniProt P27361); settings: 2µM; SH-SY5Y cells; Labeling Site Lys2; DLKPSNLLINTTCDLK; read-out: KiNativ in-cell binding, % Inhibition, MAPK3/Erk1
Excerpt: as §1

[6] = biological target: cellular kinases of SH-SY5Y cells (Homo sapiens, UniProt P29317); settings: 2µM; SH-SY5Y cells; Labeling Site Activation Loop; VLEDDPEATYTTSGGKIPIR; read-out: KiNativ in-cell binding, % Inhibition, EphA2
Excerpt: as §1

[7] = biological target: cellular kinases of SH-SY5Y cells (Homo sapiens, UniProt P29323); settings: 2µM; SH-SY5Y cells; Labeling Site Activation Loop; FLEDDTSDPTYTSALGGKIPIR; read-out: KiNativ in-cell binding, % Inhibition, EphB2
Excerpt: as §1

[8] = biological target: cellular kinases of SH-SY5Y cells (Homo sapiens, UniProt P49840); settings: 2µM; SH-SY5Y cells; labeling site Lys2; peptide DIKPQNLLVDPDTAVLK
Excerpt: as §1

[9] = biological target: T3, cellular kinases of SH-SY5Y cells (Homo sapiens, UniProt P51956); settings: 2µM; SH-SY5Y cells; Labeling Site Activation Loop; SKNIFLTQNGK; read-out: KiNativ in-cell binding, % Inhibition, NEK3
T3 construct: endogenous in cells; host or cells: SH-SY5Y
Excerpt: as §1

[10] = biological target: cellular kinases of SH-SY5Y cells (Homo sapiens, UniProt Q00535); settings: 2µM, SH-SY5Y cells, read-out: KiNativ in-cell binding, % Inhibition, CDK5
Excerpt: as §1

[11] = biological target: cellular kinases of SH-SY5Y cells (Homo sapiens, UniProt Q05397); settings: 2µM, SH-SY5Y cells, read-out: KiNativ in-cell binding, % Inhibition, PTK2/FAK
Excerpt: as §1

[12] = biological target: T4, cellular kinases of SH-SY5Y cells (Homo sapiens, UniProt Q12851); settings: 2µM; SH-SY5Y cells; Labeling Site Lys2; DIKGANLLLTLQGDVK; read-out: KiNativ in-cell binding, % Inhibition, GCK
T4 construct: endogenous in cells; host or cells: SH-SY5Y
Excerpt: as §1

[13] = biological target: T5, cellular kinases of SH-SY5Y cells (Homo sapiens, UniProt Q14680); settings: 2µM; SH-SY5Y cells; Labeling Site Lys2; DLKPENLLFDEYHK; read-out: KiNativ in-cell binding, % Inhibition, MELK
T5 construct: endogenous in cells; host or cells: SH-SY5Y
Excerpt: as §1

[14] = biological target: T6, cellular kinases of SH-SY5Y cells (Homo sapiens, UniProt Q15418); settings: 2µM, SH-SY5Y cells
T6 construct: endogenous in cells; host or cells: SH-SY5Y
Excerpt: as §1

[15] = biological target: T7, cellular kinases of SH-SY5Y cells (Homo sapiens, UniProt Q86SG6); settings: 2µM; SH-SY5Y cells; Labeling Site Lys2; DLKTQNILLDK; read-out: KiNativ in-cell binding, % Inhibition, NEK9/NEK8
T7 construct: endogenous in cells; host or cells: SH-SY5Y
Excerpt: as §1

[16] = biological target: cellular kinases of SH-SY5Y cells (Homo sapiens, UniProt Q8TDX7); settings: 2µM; SH-SY5Y cells; labeling site Lys1; peptide AACLLDGVPVALKK
Excerpt: as §1

[17] = biological target: cellular kinases of SH-SY5Y cells (Homo sapiens, UniProt Q96L34); settings: 2µM, SH-SY5Y cells, read-out: KiNativ in-cell binding, % Inhibition, MARK4
Excerpt: as §1

[18] = biological target: T8, cellular kinases of SH-SY5Y cells (Homo sapiens, UniProt Q9BYT3); settings: 2µM; SH-SY5Y cells; Labeling Site Lys2; DLKLENIMVK; read-out: KiNativ in-cell binding, % Inhibition, STK33
T8 construct: endogenous in cells; host or cells: SH-SY5Y
Excerpt: as §1

[19] = biological target: T9, cellular kinases of SH-SY5Y cells (Homo sapiens, UniProt Q9C0K7); settings: 2µM; SH-SY5Y cells; labeling site Lys1; peptide HTPTGTLVTIKITNLENCNEER
T9 construct: endogenous in cells; host or cells: SH-SY5Y
Excerpt: as §1

[20] = biological target: T10, cellular kinases of SH-SY5Y cells (Homo sapiens, UniProt Q9Y4K4); settings: 2µM, SH-SY5Y cells, read-out: KiNativ in-cell binding, % Inhibition, MAP4K5
T10 construct: endogenous in cells; host or cells: SH-SY5Y
Excerpt: as §1

T6 sequence (Q15418 whole entry): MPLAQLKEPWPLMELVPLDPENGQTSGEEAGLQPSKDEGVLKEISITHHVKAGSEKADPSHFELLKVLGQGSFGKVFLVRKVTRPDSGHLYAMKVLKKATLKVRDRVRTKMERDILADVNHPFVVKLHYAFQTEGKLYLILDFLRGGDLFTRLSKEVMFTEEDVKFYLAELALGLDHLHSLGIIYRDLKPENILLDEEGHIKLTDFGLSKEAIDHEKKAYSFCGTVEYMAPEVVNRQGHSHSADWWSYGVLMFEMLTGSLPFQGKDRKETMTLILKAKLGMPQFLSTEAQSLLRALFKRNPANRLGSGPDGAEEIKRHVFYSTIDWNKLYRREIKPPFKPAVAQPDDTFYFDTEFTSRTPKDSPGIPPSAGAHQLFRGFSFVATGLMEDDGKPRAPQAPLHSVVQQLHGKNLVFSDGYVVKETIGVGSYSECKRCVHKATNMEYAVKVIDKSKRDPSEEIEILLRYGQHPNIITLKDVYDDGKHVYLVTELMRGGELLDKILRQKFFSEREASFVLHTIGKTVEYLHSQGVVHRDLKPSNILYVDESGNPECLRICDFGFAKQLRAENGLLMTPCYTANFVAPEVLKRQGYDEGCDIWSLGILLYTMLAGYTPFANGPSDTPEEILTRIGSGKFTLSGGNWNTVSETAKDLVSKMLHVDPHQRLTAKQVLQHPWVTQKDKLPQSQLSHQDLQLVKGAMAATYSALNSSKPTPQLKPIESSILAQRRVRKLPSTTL
Chain of cellular kinases of SH-SY5Y cells (Homo sapiens, UniProt Q00535) (Q00535 whole entry): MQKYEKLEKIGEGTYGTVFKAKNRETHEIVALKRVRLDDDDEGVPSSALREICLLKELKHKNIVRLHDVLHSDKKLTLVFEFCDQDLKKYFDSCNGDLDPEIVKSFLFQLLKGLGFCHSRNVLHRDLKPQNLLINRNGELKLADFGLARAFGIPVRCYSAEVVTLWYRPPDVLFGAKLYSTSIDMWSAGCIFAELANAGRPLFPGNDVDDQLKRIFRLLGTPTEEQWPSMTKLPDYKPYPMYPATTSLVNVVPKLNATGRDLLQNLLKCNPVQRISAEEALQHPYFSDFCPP
T10 sequence (Q9Y4K4 whole entry): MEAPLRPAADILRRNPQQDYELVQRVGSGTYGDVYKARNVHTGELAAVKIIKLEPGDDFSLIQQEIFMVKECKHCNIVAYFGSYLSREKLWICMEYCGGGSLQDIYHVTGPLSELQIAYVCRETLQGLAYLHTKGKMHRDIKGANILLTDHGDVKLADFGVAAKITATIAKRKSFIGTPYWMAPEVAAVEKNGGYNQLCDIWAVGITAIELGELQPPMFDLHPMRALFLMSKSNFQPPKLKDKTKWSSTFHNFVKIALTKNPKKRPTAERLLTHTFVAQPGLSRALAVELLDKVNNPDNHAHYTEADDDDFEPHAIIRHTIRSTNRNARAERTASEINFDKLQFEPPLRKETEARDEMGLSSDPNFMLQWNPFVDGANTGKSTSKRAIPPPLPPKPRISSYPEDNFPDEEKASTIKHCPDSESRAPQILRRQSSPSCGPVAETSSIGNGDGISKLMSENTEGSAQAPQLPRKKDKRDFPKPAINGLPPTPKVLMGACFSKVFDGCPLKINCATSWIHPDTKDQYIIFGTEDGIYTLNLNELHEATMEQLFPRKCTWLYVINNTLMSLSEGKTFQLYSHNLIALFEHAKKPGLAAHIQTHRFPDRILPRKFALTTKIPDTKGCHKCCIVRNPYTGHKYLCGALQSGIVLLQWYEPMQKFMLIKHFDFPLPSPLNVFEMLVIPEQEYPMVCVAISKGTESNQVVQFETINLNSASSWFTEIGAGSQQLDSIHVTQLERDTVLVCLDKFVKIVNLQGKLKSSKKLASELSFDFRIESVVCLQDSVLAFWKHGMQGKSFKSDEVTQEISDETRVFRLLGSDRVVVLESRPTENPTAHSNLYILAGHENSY
T2 sequence (P16591 whole entry): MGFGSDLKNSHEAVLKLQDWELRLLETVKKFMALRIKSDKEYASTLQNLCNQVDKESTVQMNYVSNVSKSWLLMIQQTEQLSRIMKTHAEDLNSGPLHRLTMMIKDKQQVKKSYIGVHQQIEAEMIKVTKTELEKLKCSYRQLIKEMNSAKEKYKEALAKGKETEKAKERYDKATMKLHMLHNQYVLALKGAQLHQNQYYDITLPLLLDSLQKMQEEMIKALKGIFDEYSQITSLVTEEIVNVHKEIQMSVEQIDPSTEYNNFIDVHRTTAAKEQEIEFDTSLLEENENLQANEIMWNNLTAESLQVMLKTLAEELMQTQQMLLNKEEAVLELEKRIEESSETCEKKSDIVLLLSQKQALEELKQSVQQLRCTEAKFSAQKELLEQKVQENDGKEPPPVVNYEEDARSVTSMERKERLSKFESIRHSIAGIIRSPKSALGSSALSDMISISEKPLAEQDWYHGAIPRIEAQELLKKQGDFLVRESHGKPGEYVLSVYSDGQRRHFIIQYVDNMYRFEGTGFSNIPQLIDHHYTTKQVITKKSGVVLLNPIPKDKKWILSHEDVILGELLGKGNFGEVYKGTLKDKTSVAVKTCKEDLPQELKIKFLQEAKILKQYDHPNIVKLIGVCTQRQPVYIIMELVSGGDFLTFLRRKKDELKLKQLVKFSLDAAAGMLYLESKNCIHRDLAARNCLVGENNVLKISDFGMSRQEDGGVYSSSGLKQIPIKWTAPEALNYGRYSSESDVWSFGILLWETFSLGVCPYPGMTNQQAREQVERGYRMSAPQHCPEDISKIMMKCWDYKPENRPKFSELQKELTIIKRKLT
Chain of cellular kinases of SH-SY5Y cells (Homo sapiens, UniProt Q05397) (Q05397 whole entry): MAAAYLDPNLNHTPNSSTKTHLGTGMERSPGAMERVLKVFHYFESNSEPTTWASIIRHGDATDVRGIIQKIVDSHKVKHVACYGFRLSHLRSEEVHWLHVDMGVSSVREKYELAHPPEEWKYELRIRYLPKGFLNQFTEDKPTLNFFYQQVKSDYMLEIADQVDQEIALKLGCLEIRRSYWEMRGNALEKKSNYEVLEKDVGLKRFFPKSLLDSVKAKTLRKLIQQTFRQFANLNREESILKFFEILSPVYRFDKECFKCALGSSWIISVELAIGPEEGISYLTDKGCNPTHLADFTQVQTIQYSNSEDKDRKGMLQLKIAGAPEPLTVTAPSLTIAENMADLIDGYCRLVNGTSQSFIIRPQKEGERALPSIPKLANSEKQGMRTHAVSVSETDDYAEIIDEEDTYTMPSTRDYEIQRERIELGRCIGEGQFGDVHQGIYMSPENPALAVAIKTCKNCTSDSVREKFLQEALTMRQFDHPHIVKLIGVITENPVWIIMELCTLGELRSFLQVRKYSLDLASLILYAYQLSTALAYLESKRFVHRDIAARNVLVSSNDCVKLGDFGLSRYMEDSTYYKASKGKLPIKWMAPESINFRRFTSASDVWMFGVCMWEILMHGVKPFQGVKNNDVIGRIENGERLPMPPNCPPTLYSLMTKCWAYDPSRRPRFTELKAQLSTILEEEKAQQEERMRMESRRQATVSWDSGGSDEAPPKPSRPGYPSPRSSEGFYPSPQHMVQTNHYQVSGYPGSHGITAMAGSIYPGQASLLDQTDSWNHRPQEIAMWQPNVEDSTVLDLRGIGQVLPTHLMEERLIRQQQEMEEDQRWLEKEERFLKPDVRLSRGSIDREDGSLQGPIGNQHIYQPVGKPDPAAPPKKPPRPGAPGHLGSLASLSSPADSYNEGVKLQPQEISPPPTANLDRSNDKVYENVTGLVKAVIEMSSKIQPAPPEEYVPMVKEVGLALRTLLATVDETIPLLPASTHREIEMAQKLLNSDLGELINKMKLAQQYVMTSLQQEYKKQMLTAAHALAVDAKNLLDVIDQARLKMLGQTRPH
Chain of cellular kinases of SH-SY5Y cells (Homo sapiens, UniProt Q96L34) (Q96L34 whole entry): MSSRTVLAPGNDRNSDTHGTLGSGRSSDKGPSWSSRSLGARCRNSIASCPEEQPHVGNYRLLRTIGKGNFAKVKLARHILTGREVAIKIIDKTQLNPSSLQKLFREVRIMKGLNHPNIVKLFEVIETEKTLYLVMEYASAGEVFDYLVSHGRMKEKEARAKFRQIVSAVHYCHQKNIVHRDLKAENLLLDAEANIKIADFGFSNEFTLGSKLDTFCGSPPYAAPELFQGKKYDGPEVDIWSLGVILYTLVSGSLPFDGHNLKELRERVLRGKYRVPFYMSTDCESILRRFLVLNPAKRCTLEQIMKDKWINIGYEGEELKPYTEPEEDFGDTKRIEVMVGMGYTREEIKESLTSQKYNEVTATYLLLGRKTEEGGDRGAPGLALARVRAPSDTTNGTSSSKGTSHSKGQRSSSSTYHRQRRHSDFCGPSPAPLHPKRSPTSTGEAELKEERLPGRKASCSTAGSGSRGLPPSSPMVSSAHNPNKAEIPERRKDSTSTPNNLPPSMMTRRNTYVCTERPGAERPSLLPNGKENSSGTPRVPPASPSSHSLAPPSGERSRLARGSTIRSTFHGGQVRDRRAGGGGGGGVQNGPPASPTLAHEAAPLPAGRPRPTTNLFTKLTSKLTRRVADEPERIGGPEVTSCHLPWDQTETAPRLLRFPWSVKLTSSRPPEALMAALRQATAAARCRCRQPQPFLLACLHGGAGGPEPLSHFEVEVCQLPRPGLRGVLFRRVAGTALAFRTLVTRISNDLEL
T8 sequence (Q9BYT3 whole entry): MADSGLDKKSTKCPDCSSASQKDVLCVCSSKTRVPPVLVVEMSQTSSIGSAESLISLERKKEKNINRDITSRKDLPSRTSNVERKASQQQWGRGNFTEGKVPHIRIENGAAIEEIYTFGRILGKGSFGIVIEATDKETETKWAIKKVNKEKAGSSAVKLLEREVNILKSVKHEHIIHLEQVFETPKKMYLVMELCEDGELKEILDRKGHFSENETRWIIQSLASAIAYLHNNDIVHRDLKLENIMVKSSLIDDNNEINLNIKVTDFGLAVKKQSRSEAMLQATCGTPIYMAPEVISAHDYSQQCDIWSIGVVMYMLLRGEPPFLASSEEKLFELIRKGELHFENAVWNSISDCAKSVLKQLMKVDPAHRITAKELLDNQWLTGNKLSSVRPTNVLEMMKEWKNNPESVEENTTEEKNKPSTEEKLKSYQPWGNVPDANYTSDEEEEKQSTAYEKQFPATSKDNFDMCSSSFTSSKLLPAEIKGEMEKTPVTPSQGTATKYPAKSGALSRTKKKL

For Cc1cccc(-c2nc(Nc3ccc4ncsc4c3)c3ccccc3n2)n1 [NK140], the inhibition at 2 µM [1] was 27.2%, the inhibition at 2 µM [2] was 8.7% and the “KiNativ in-cell binding, FER” value ([3]; labeling site Activation Loop, peptide QEDGGVYSSSGLKQIPIK) was -42.5. The “KiNativ in-cell binding, FER” value ([3]; labeling site Lys1, peptide TSVAVKTCKEDLPQELK) was -53.4, the “KiNativ in-cell binding, CSNK2A2” value [4] was -67.6 and the inhibition at 2 µM [5] was 32.4%. The inhibition at 2 µM [6] was 1.2%, the inhibition at 2 µM [7] was -8.7% and the “KiNativ in-cell binding, GSK3A” value [8] was 7.1. For the same compound, the inhibition at 2 µM [9] was -13.4%, the inhibition at 2 µM ([10]; Labeling Site Lys1, NRETHEIVALKR) was -44.9% and the inhibition at 2 µM ([10]; Labeling Site Lys2, DLKPQNLLINR) was -39%. It also gave an inhibition at 2 µM ([11]; Labeling Site Activation Loop, YMEDSTYYKASK) of 16.9%, an inhibition at 2 µM ([11]; Labeling Site Lys1, CIGEGQFGDVHQGIYMSPENPALAVAIKTCK) of 18% and an inhibition at 2 µM [12] of 11.6%. For the same compound, the inhibition at 2 µM [13] was -40.7%, the inhibition at 2 µM ([14]; Labeling Site Activation Loop, LTDFGLSKEAIDHEKK, read-out: KiNativ in-cell binding, % Inhibition, RPS6KA1/RSK1 domain1) was -25.4% and the inhibition at 2 µM ([14]; Labeling Site Lys2, DLKPSNILYVDESGNPECLR, read-out: KiNativ in-cell binding, % Inhibition, RPS6KA1/RSK1 domain2) was -53.6%. For the same compound, the inhibition at 2 µM [15] was 15.8%, the “KiNativ in-cell binding, NEK7” value [16] was -3.8 and the inhibition at 2 µM ([17]; Labeling Site Lys1, EVAIKIIDKTQLNPSSLQK) was 7.2%. For the same compound, the inhibition at 2 µM ([17]; Labeling Site Lys2, DLKAENLLLDAEANIK) was 11.5%, the inhibition at 2 µM [18] was -1.4% and the “KiNativ in-cell binding, STRADB” value [19] was 0.5. It also gave an inhibition at 2 µM ([20]; Labeling Site Lys1, NVHTGELAAVKIIK) of 27.4% and an inhibition at 2 µM ([20]; Labeling Site Lys2, DIKGANILLTDHGDVK) of 26.4%.
